How the values were obtained:
[1] = Serum calcium levels, adult female rats, day 7 of oral dosing; assay type: in vivo; conditions: for Serum Calcium Mean: vehicle 9.65
Experimental: Three month old adult female rats were used. […] On day 7 of dosing, animals were bled and serum calcium levels were determined. Compound was dissolved in 200 proof ethanol to produce a concentration of 100 μg/ml. […] Dose volume was calculated using the dosing group average body weight. Serial dilutions of vehicle dissolved compound were done to appropriate dosage concentrations. Blood (1.5 ml) was collected from each animal by orbital puncture under ether anesthesia on Day 7 of dosing. Blood was collected into serum separator tubes, centrifuged at 2000 rpm for 15 minutes and then serum aliquoted for calcium determinations. Serum calcium was determined by colorimetric assay.

[2] = tested on: breast cancer cell line (MCF-7); assay: Clonogenic assay in soft agar, MCF-7; assay type: cell-based; conditions: Homo sapiens, MCF7, MCF-7 cells, read-out: ED50 (effective dose that inhibited 50% colony formation)
Experimental: Cell lines. The breast cancer cell line (MCF-7), prostate cancer cell line (LNCaP) and myeloid leukemia cell line (HL-60) were maintained as follows: MCF-7 cells were maintained in Dulbecco's Modified Eagle Media (DMEM) with 10% fetal calf serum (FCS); LNCaP and HL-60 were cultured in RPMI1640 with 10% FCS; All three cell lines were maintained in a 37° C. incubator containing 5% CO2.
Vitamin D3 Compounds. The vitamin D3 compounds were dissolved in absolute ethanol at 10^-3 M as stock solution, which were stored at -20° C. and protected from light. For in vitro use, compounds were diluted in DMEM or RPMI medium. For in vivo use, compounds were diluted with phosphate buffered saline (PBS). […]. Washed single-cell suspensions of cells were enumerated and plated into 24-well flat-bottomed plates with a total of […] cells/well in a volume of 400 μl/well. The feeder layer was prepared with agar that had been equilibrated at 42° C. Prior to this step, compounds were pipetted into wells. After incubation, the colonies were counted. All experiments were done at least three times using triplicate plates per experimental point.
Effect of Vitamin D3 analogs on Clonogenic Assay. […]

For `C=C1/C(=C/C=C2\CCC[C@]3(C)C([C@H](C)CCCC(C)(C)O)=CC[C@@H]23)C[C@@H](O)C[C@@H]1O` [1,25(OH)2-16-ene-5,6-trans-D3, 1,25-Dihydroxy-16-ene-5,6-trans-cholecalciferol], the “Serum Calcium Mean” value ([1]; 0.5 μg/kg/day oral) was 10.64 mg/dL, the “Serum Calcium Mean” value ([1]; 1 μg/kg/day oral) was 10.06 mg/dL and the “Serum Calcium Mean” value ([1]; 1.5 μg/kg/day oral) was 9.92 mg/dL. The “Serum Calcium Mean” value ([1]; 2 μg/kg/day oral) was 9.77 mg/dL, the serum calcium levels ([1]; up to 2 μg/kg/day oral) was “within the normal range” and the IC50 [2] was 4.3 nM.

Reference: patent US6331642A, “Vitamin D3 analogs” (Hoffmann-La Roche Inc., priority 2000, dated 2001)
